In ChEMBL document CHEMBL1137335, “Multivalent effects of RGD peptides obtained by nanoparticle display” (J Med Chem, 2006):
Positions of bridges follow the written chain, without caps; N, C: chain ends. Residues, ends and D or L forms follow the SMILES beside them. *: point of attachment. 5FAM = O=C1OC2(c3ccc(O)cc3Oc3cc(O)ccc32)c2ccc(C(=O)*)cc21

Legend:
[1] = system: BT-20; assay: Level of peptide binding to human BT20 cells indicating presence of integrin alphaVbeta3; type: functional
[2] = system: 9L; assay: Level of peptide binding to rat 9L cells indicating presence of integrin alphaVbeta3; type: functional
[3] = system: HUVEC; assay: Uptake in human HUVEC; type: functional, cell-based
[4] = system: HUVEC; assay: Antiadhesive activity against human HUVEC; type: functional, cell-based
[5] = system: BT-20; assay: Uptake in human BT20 cells; type: functional, cell-based
[6] = system: BT-20; assay: Antiadhesive activity against human BT20 cells; type: functional, cell-based

EC50 [5]: 1.2 µM | IC50 [6]: 130 µM
SMILES: NCC(=O)N[C@@H](CO)C(=O)N[C@@H](CO)C(=O)N[C@@H](CCCCNC(=O)c1ccc2c(c1)C(=O)OC21c2ccc(O)cc2Oc2cc(O)ccc21)C(=O)NCC(=O)NCC(=O)NCC(=O)N[C@H]1CSSC[C@@H](C(=O)O)NC(=O)[C@H](CC(=O)O)NC(=O)CNC(=O)[C@H](CCCN=C(N)N)NC1=O (H-GSSK(5FAM)GGGCRGDC-OH; disulfide 8-12)
Activity [1]: 0.82 pmol | Activity [2]: 0.16 pmol | EC50 [3]: 6 µM | IC50 [4]: 0.76 µM
